The IC50 is the point on the concentration scale where inhibition reaches its midpoint.

These results are taken from patent US12187773B2, “Modified GIP peptide analogues” (Antag Therapeutics ApS, priority 2018, dated 2025).

Where a SMILES comes first, the peptide text is derived from it. Where no end group is shown, it is not given here. The star is where a group is joined. C16 diacid = O=C(O)CCCCCCCCCCCCCCC(=O)*

What all share (assay type): cell-based
Assay [1] has as its target T1, human GIP receptor (Homo sapiens, UniProt P48546).
T1 sequence (P48546 22-466): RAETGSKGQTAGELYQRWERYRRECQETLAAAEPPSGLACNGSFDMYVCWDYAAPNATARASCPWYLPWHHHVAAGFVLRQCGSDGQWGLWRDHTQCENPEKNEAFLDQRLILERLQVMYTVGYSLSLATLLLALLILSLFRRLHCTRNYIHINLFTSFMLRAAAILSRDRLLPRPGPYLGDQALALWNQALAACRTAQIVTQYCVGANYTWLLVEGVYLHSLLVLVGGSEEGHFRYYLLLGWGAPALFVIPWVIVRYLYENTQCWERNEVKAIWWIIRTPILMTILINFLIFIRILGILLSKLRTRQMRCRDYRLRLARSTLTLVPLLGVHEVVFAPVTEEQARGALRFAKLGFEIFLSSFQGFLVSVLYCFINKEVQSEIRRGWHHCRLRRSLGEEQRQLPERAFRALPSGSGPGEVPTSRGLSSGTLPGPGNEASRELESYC
The assay can be described thus: cAMP agonism (CisBio cAMP Dynamic 2 HTRF assay). As for the experimental part: To test for agonistic properties at the GIP receptor, compounds were diluted and added to cells as described above and incubated for 30 min at 37° C. The resulting increase in intracellular cAMP was determined using the CisBio cAMP Dynamic 2 HTRF Assay Kit as described above.
On the technique in general: Time-resolved FRET reads energy transfer from a long-lived donor to a nearby acceptor.

Assay [2] addresses T1, human GIP receptor. The assay can be described thus: cAMP accumulation, agonism (DiscoveRx HitHunter cAMP XS assay). On the set-up: host or cells: COS-7 (transient, calcium phosphate; pCMV-Script vector). As for the experimental part: (§1) Transient transfected COS-7 cells expressing the human GIP receptor were seeded in white 96-well plates with a density of 3.5*10^4/well. The day after, the cells were washed twice with Hepes buffered saline (HBS) buffer and incubated with HBS and 1 mM 3-isobutyl-1-methylxanthine (IBMX) for 30 min at 37° C. To test for agonistic properties, ligands were added and incubated for 30 min at 37° C. In order to test for antagonistic properties, the cells were preincubated with the antagonists for 10 min prior to the addition of the agonist and subsequent incubated for 20 additional min. The HitHunter™ cAMP XS assay (DiscoveRx) was carried out according to the manufacturer's instructions.
(§2) In order to develop a GIP receptor antagonist with improved antagonistic properties, individual amino acid substitutions were conducted on GIP(3-30)NH2 and in particular at positions: 16, 18, 30 or 3, 16, 18, 30. The obtained peptides were lipidated at position 18 directly or via a linker. Both the agonistic and antagonistic profiles of the compounds were tested in cAMP accumulation experiments done in transiently transfected COS-7 cells expressing the human GIP receptor. To investigate if these mutated analogues still retained their antagonistic properties, their ability to inhibit a GIP-mediated cAMP response corresponding to 50-80% of maximum activation was examined.
Background: Changes in cAMP serve as a functional read-out for many G protein-coupled receptors.

For assay [3], the target named is T1, human GIP receptor. The assay can be described thus: cAMP antagonism (CisBio cAMP Dynamic 2 HTRF assay). Also noted: pCMV-Script vector. The settings on record: Table 1C; CisBio; HEK-293 cells. As for the experimental part:
The in vitro functional activity of compounds towards human GIP receptor can also be determined in HEK-293 cells transiently expressing the receptor. On the day of the assay, cells were resuspended in HBSS buffer (Gibco, 14025-50) supplemented with 20 mM HEPES (Gibco, 15630-106), 0,1% Pluronic F-68 (Gibco, 24040-032) and 0,1% casein (Sigma, C4765), and plated in 384-well plates at a density of 5000 cells/well. The GIP peptide analogues of the present disclosure were diluted in HBSS buffer supplemented with 20 mM HEPES, 0,1% pluronic, 0,1% casein and 500 uM IBMX. […] The resulting decrease in intracellular cAMP was quantitatively determined using the CisBio cAMP Dynamic 2 HTRF Assay Kit. The assay is based on a competition between native cAMP produced by cells and cAMP labeled with the dye d2 for binding to a cryptate labeled antibody. The specific signal (i.e. energy transfer signal) is inversely proportional to the concentration of cAMP in the sample.
The cAMP-d2 conjugate and the antibody anti-cAMP-Cryptate, both diluted in lysis buffer provided in the kit, were added to the cells according to the manufacturer's protocol. The resulting competitive assay was incubated for 60 minutes at room temperature, and the signal was detected by using a PerkinElmer Envision® instrument with excitation at 320 nm and emission at 665 nm and 620 nm. The HTRF ratio (emission at 665 nm/620 nm*10,000) is inversely proportional to the amount of cAMP present and is converted to nM cAMP per well using a cAMP standard curve. The dose-response curves were fitted using the non-linear regression analysis (four-logistic parameter equation) in GraphPad Prism, whereby pIC50 values were estimated.

For assay [4], the target named is T1, human GIP receptor. Kind of assay: cAMP accumulation, antagonism (DiscoveRx HitHunter cAMP XS assay). On the set-up: host or cells: COS-7 (transient, calcium phosphate; pCMV-Script vector). As to conditions: Table 2, truncated GIP antagonists. Here is the method:
as §1, §2

[5] abbreviates: HEK293, read-out: cAMP agonism, % Efficacy, Table 1C, HEK-293 cells.

On to `CC[C@H](C)[C@H](NC(=O)[C@H](CO)NC(=O)[C@H](Cc1ccc(O)cc1)NC(=O)[C@H](CCC(=O)O)NC(=O)[C@H](CO)NC(=O)[C@@H](NC(=O)[C@H](Cc1ccccc1)NC(=O)[C@@H](NC(=O)CNC(=O)[C@@H](N)CCC(=O)O)[C@@H](C)O)[C@@H](C)CC)C(=O)N[C@@H](C)C(=O)N[C@@H](CCSC)C(=O)N[C@@H](CCC(=O)O)C(=O)N[C@@H](CCCCN)C(=O)N[C@H](C(=O)N[C@@H](CCCCNC(=O)CCCCCCCCCCCCCCC(=O)O)C(=O)N[C@@H](CCC(N)=O)C(=O)N[C@@H](CCC(N)=O)C(=O)N[C@@H](CCC(=O)O)C(=O)N[C@@H](Cc1ccccc1)C(=O)N[C@H](C(=O)N[C@@H](CCC(N)=O)C(=O)N[C@@H](Cc1c[nH]c2ccccc12)C(=O)N[C@@H](CC(C)C)C(=O)N[C@@H](CC(C)C)C(=O)N[C@@H](C)C(=O)N[C@@H](CCC(N)=O)C(=O)N[C@@H](CCCCN)C(N)=O)C(C)C)[C@@H](C)CC` [AT482] (H-EGTFISEYSIAMEKIK(C16 diacid)QQEFVQWLLAQK-NH2; N-terminus assumed), for which the Emax is 0% on human GIP receptor [1] (HEK293, Table 1C, HEK-293 cells, read-out: cAMP agonism, % Efficacy) and 10% on human GIP receptor [2] (Table 1B, DiscoveRx, COS-7 cells, read-out: cAMP agonism, Emax).
`CC[C@H](C)[C@H](NC(=O)[C@H](CO)NC(=O)[C@H](Cc1ccc(O)cc1)NC(=O)[C@H](CC(=O)O)NC(=O)[C@H](CO)NC(=O)[C@@H](NC(=O)[C@H](Cc1ccccc1)NC(=O)[C@@H](NC(=O)CNC(=O)[C@@H]1CCCN1)[C@@H](C)O)[C@@H](C)CC)C(=O)N[C@@H](C)C(=O)N[C@@H](CCSC)C(=O)N[C@@H](CC(=O)O)C(=O)N[C@@H](CCCNC(=N)N)C(=O)N[C@H](C(=O)N[C@@H](CCCCNC(=O)COCCOCCNC(=O)CC[C@H](NC(=O)CCCCCCCCCCCCCCC(=O)O)C(=O)O)C(=O)N[C@@H](CCC(N)=O)C(=O)N[C@@H](CCC(N)=O)C(=O)N[C@@H](CC(=O)O)C(=O)N[C@@H](Cc1ccccc1)C(=O)N[C@H](C(=O)N[C@@H](CC(N)=O)C(=O)N[C@@H](Cc1c[nH]c2ccccc12)C(=O)N[C@@H](CC(C)C)C(=O)N[C@@H](CC(C)C)C(=O)N[C@@H](C)C(=O)N[C@@H](CCC(N)=O)C(=O)N[C@@H](CCCNC(=N)N)C(=O)O)C(C)C)[C@@H](C)CC` [AT273] (HELM PEPTIDE1{P.G.T.F.I.S.D.Y.S.I.A.M.D.R.I.K.Q.Q.D.F.V.N.W.L.L.A.Q.R}|PEPTIDE2{[O=C(O)CCCCCCCCCCCCCCC(=O)[*:2]].[gGlu].[O=C(COCCOCCN[*:1])[*:2]]}$PEPTIDE1,PEPTIDE2,16:R3-3:R2$$$V2.0; N-terminus assumed): the Emax on human GIP receptor [1] (setting [5]) was found to be 0%; at human GIP receptor [2] (COS-7, read-out: cAMP agonism, Emax), 35%.
Regarding `CC[C@H](C)[C@H](NC(=O)[C@H](CO)NC(=O)[C@@H](N)Cc1ccc(O)cc1)C(=O)N[C@@H](C)C(=O)N[C@@H](CCSC)C(=O)N[C@@H](CC(=O)O)C(=O)N[C@@H](CCCCN)C(=O)N[C@H](C(=O)N[C@@H](CCCCNC(=O)CCCCCCCCCCCCCCC(=O)O)C(=O)N[C@@H](CCC(N)=O)C(=O)N[C@@H](CCC(N)=O)C(=O)N[C@@H](CC(=O)O)C(=O)N[C@@H](Cc1ccccc1)C(=O)N[C@H](C(=O)N[C@@H](CC(N)=O)C(=O)N[C@@H](Cc1c[nH]c2ccccc12)C(=O)N[C@@H](CC(C)C)C(=O)N[C@@H](CC(C)C)C(=O)N[C@@H](C)C(=O)N[C@@H](CCC(N)=O)C(=O)N[C@@H](CCCCN)C(N)=O)C(C)C)[C@@H](C)CC` [AT357] (H-YSIAMDKIK(C16 diacid)QQDFVNWLLAQK-NH2; N-terminus assumed), the Emax at human GIP receptor [1] (setting [5]) came to 0%. For the same molecule, the “cAMP antagonism, % inhib” value at human GIP receptor [3] is 40%; at human GIP receptor [4], 100.0%.
“AT356: GIP 9-30, C-term NH2, C16-diacid at position 18, [H18K] (DYSIAMDKIK(C16 diacid)QQDFVNWLLAQK-NH2; N-terminus assumed; SMILES CC[C@H](C)[C@H](NC(=O)[C@H](CO)NC(=O)[C@H](Cc1ccc(O)cc1)NC(=O)[C@@H](N)CC(=O)O)C(=O)N[C@@H](C)C(=O)N[C@@H](CCSC)C(=O)N[C@@H](CC(=O)O)C(=O)N[C@@H](CCCCN)C(=O)N[C@H](C(=O)N[C@@H](CCCCNC(=O)CCCCCCCCCCCCCCC(=O)O)C(=O)N[C@@H](CCC(N)=O)C(=O)N[C@@H](CCC(N)=O)C(=O)N[C@@H](CC(=O)O)C(=O)N[C@@H](Cc1ccccc1)C(=O)N[C@H](C(=O)N[C@@H](CC(N)=O)C(=O)N[C@@H](Cc1c[nH]c2ccccc12)C(=O)N[C@@H](CC(C)C)C(=O)N[C@@H](CC(C)C)C(=O)N[C@@H](C)C(=O)N[C@@H](CCC(N)=O)C(=O)N[C@@H](CCCCN)C(N)=O)C(C)C)[C@@H](C)CC)”: the “cAMP antagonism, nM (IC50)” value with human GIP receptor [4] was “No antagonism”.
Turning to `CC[C@H](C)[C@H](NC(=O)[C@H](CO)NC(=O)[C@H](Cc1ccc(O)cc1)NC(=O)[C@H](CC(=O)O)NC(=O)[C@@H](N)CO)C(=O)N[C@@H](C)C(=O)N[C@@H](CCSC)C(=O)N[C@@H](CC(=O)O)C(=O)N[C@@H](CCCCN)C(=O)N[C@H](C(=O)N[C@@H](CCCCNC(=O)CCCCCCCCCCCCCCC(=O)O)C(=O)N[C@@H](CCC(N)=O)C(=O)N[C@@H](CCC(N)=O)C(=O)N[C@@H](CC(=O)O)C(=O)N[C@@H](Cc1ccccc1)C(=O)N[C@H](C(=O)N[C@@H](CC(N)=O)C(=O)N[C@@H](Cc1c[nH]c2ccccc12)C(=O)N[C@@H](CC(C)C)C(=O)N[C@@H](CC(C)C)C(=O)N[C@@H](C)C(=O)N[C@@H](CCC(N)=O)C(=O)N[C@@H](CCCCN)C(N)=O)C(C)C)[C@@H](C)CC` [AT355] (H-SDYSIAMDKIK(C16 diacid)QQDFVNWLLAQK-NH2; N-terminus assumed), the Emax at human GIP receptor [1] (setting [5]) stood at 0%. In addition, the “cAMP antagonism, % inhib” value was 65% on human GIP receptor [3] and 100.0% at human GIP receptor [4].
Turning to `CC[C@H](C)[C@H](N)C(=O)N[C@@H](CO)C(=O)N[C@@H](CC(=O)O)C(=O)N[C@@H](Cc1ccc(O)cc1)C(=O)N[C@@H](CO)C(=O)N[C@H](C(=O)N[C@@H](C)C(=O)N[C@@H](CCSC)C(=O)N[C@@H](CC(=O)O)C(=O)N[C@@H](CCCCN)C(=O)N[C@H](C(=O)N[C@@H](CCCCNC(=O)CCCCCCCCCCCCCCC(=O)O)C(=O)N[C@@H](CCC(N)=O)C(=O)N[C@@H](CCC(N)=O)C(=O)N[C@@H](CC(=O)O)C(=O)N[C@@H](Cc1ccccc1)C(=O)N[C@H](C(=O)N[C@@H](CC(N)=O)C(=O)N[C@@H](Cc1c[nH]c2ccccc12)C(=O)N[C@@H](CC(C)C)C(=O)N[C@@H](CC(C)C)C(=O)N[C@@H](C)C(=O)N[C@@H](CCC(N)=O)C(=O)N[C@@H](CCCCN)C(N)=O)C(C)C)[C@@H](C)CC)[C@@H](C)CC` [AT354] (H-ISDYSIAMDKIK(C16 diacid)QQDFVNWLLAQK-NH2; N-terminus assumed), on human GIP receptor [1] (setting [5]), the Emax was found to be 0%. In addition, the “cAMP antagonism, % inhib” value stood at 91% on human GIP receptor [3] and 100.0% at human GIP receptor [4]. For the same molecule, the IC50 on human GIP receptor [4] (cAMP antagonism, nM (IC50)) is 10 nM.
